We go through 19 compounds from patent US20200369667A1, “HETEROCYCLIC COMPOUNDS AS PRMT5 INHIBITORS” (ANGEX PHARMACEUTICAL, INC., priority 2017, published 2020).

In this assay the target is PRMT5:MEP50 (Homo sapiens, UniProt O14744). Nature of the assay: PRMT5:MEP50 Flashplate Assay. The class given is biochemical. The note with it: PRMT5:MEP50 inhibitory activity, 3H-SAM FlashPlate, class symbol. The procedure: Ten-point curves of inhibitor compounds were made using serial threefold dilutions in DMSO (the final top concentration of compound was 10 μM, 1% DMSO). Reaction mixture consisting of 50 mM Tris-HCl (pH 8.5), 0.002% Tween20, 0.005% BSA (Bovine Serum Albumin), 1 mM TCEP, and 1% DMSO. Substrates are freshly prepared in reaction buffer. PRMT5:MEP50 was then added into substrate solution and mixed gently. Inhibitor compound was then added and incubated for 30 min at room temperature. ^3H-SAM was added to initiate the reaction. Reactions were incubated for 2 h at room temperature and quenched with 0.5 mM SAM (S-adenosyl-L-Methionine) in assay buffer. An aliquot of the reaction mix was transferred to a streptavidin-coated 384-well FlashPlate (PerkinElmer). After an incubation time of 1 h, the plate was washed and then read on a TopCount (PerkinElmer) to measure the amount of tritium incorporated into the peptide substrate. IC50 was calculated using conventional curve-fitting method.
Sequence of PRMT5:MEP50 (O14744 whole entry, species assumed): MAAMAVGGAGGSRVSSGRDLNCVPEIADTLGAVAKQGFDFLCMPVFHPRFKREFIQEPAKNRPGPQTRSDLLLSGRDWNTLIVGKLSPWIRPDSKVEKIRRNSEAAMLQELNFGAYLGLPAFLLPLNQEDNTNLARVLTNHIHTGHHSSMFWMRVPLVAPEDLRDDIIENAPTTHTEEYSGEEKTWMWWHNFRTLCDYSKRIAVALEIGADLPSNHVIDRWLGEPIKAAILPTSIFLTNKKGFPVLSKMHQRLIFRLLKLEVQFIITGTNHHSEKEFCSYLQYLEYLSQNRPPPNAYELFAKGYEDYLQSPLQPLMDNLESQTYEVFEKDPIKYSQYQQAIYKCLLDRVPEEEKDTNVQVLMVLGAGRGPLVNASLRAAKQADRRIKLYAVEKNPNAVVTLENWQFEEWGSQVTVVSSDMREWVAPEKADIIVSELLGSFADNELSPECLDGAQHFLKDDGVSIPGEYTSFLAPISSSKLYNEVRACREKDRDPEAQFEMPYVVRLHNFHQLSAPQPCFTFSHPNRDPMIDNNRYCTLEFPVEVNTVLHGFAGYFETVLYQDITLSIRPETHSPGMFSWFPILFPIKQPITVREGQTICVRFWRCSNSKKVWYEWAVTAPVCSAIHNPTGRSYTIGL
Sequence of PRMT5:MEP50 (Q9BQA1 whole entry partner, species assumed): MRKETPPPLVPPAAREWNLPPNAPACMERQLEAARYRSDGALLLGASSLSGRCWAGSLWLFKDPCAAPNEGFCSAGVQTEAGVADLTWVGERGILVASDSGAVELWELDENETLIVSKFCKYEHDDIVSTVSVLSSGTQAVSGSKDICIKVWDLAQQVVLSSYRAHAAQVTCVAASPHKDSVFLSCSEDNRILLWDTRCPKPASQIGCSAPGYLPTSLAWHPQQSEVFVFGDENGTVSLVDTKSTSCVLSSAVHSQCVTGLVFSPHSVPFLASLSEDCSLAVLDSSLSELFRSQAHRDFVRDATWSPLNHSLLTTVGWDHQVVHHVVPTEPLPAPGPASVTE
As usually defined, the IC50 is the midpoint of a concentration-inhibition curve. A low value points to greater potency in that assay. Compound `Cn1c(N)nc2cc(CC[C@H]3C[C@@H](n4ccc5c(N)ncnc54)[C@H](O)[C@@H]3O)ccc2c1=O` [Compound 1-7, 2-amino-7-(2-((1S,2R,3S,4R)-4-(4-amino-7H-pyrrolo[2,3-d]pyrimidin-7-yl)-2,3-dihydroxycyclopentyl)ethyl)-3-methylquinazolin-4(3H)-one] registered an IC50 of less than 1 nM.

Consider `C[C@H]1COc2cc3ccc(CC[C@H]4C[C@@H](n5ccc6c(N)ncnc65)[C@H](O)[C@@H]4O)cc3nc2N1` [Compound 1-8, (1R,2S,3R,5S)-3-(4-amino-7H-pyrrolo[2,3-d]pyrimidine-7-yl)-5-(2-((S)-3-methyl-3,4-dihydro-2H-[1,4]oxazino[3,2-b]quinoline-7-yl)ethyl)cyclopentane-1,2-diol], for which the IC50 was less than 1 nM.

With `C[C@@H]1COc2cc3ccc(CC[C@H]4C[C@@H](n5ccc6c(N)ncnc65)[C@H](O)[C@@H]4O)cc3nc2N1` [Compound 1-9], the 50% inhibitory concentration (IC50) was less than 1 nM.

For the compound `C[C@@H]1CNc2nc3cc(CC[C@H]4C[C@@H](n5ccc6c(N)ncnc65)[C@H](O)[C@@H]4O)ccc3cc2O1` [Compound 1-10], the IC50 is less than 1 nM.

On to `C[C@H]1CNc2nc3cc(CC[C@H]4C[C@@H](n5ccc6c(N)ncnc65)[C@H](O)[C@@H]4O)ccc3cc2O1` [Compound 1-11], for which the IC50 is less than 1 nM.

For `Nc1ncnc2c1ccn2[C@@H]1C[C@H](CCc2ccc3cc4c(nc3c2)NC(=O)CO4)[C@@H](O)[C@H]1O` [Compound 1-12], the IC50 was less than 1 nM.

Consider `Nc1ncnc2c1ccn2[C@@H]1C[C@H](CCc2ccc3cc4c(nc3c2)NCCS4)[C@@H](O)[C@H]1O` [Compound 1-13], for which the IC50 is less than 1 nM.

In the case of `CN1C(N)=Nc2cc(CC[C@H]3C[C@@H](n4ccc5c(N)ncnc54)[C@H](O)[C@@H]3O)ccc2S1(=O)=O` [Compound 1-14], the IC50 was less than 1 nM.

Take `CC1(C)C(N)=Nc2cc(CC[C@H]3C[C@@H](n4ccc5c(N)ncnc54)[C@H](O)[C@@H]3O)ccc2S1(=O)=O` [Compound 1-15]: the IC50 was in the range of 1 to 100 nM.

`CC1(C)Oc2ccc(CC[C@H]3C[C@@H](n4ccc5c(N)ncnc54)[C@H](O)[C@@H]3O)cc2N=C1N` [Compound 1-16] came in with an IC50 of less than 1 nM.

As for `Nc1ncnc2c1ccn2[C@@H]1C[C@H](CCc2ccc3c(=O)n(C4CC4)c(N)nc3c2)[C@@H](O)[C@H]1O` [Compound 1-17], the IC50 is less than 1 nM.

`CC1(C)Cn2c(nc3cc(CC[C@H]4C[C@@H](n5ccc6c(N)ncnc65)[C@H](O)[C@@H]4O)ccc3c2=O)N1` [Compound 1-18] gave a 50% inhibitory concentration (IC50) of 1 to 100 nM.

`CN1C(N)=Nc2cc(CC[C@H]3O[C@@H](n4ccc5c(N)ncnc54)[C@H](O)[C@@H]3O)ccc2S1(=O)=O` [Compound 2-8] displayed an IC50 of 1 to 100 nM.

`C[C@@H]1CNc2nc3cc(CC[C@H]4O[C@@H](n5ccc6c(N)ncnc65)[C@H](O)[C@@H]4O)ccc3cc2O1` [Compound 2-9] gave a half-inhibitory concentration (IC50) of 1 to 100 nM.

For the compound `C[C@H]1CNc2nc3cc(CC[C@H]4O[C@@H](n5ccc6c(N)ncnc65)[C@H](O)[C@@H]4O)ccc3cc2O1` [Compound 2-10], the IC50 was in the range of 1 to 100 nM.

`CC1(C)C(N)=Nc2cc(CC[C@H]3O[C@@H](n4ccc5c(N)ncnc54)[C@H](O)[C@@H]3O)ccc2S1(=O)=O` [Compound 2-11] gave an IC50 of 1 to 100 nM.

`CC1(C)Oc2ccc(CC[C@H]3O[C@@H](n4ccc5c(N)ncnc54)[C@H](O)[C@@H]3O)cc2N=C1N` [Compound 2-12] displayed an IC50 of less than 1 nM.

`Nc1nc2cc(CCC[C@H]3C[C@@H](n4ccc5c(N)ncnc54)[C@H](O)[C@@H]3O)ccc2cc1Br` [Compound 3-7] had a half-maximal inhibitory concentration (IC50) of 1 to 100 nM.

The compound `Nc1ncnc2c1ccn2[C@@H]1C[C@H](CCc2ccc3cc4c(nc3c2)NC(=O)CS4)[C@@H](O)[C@H]1O` [Compound 4-3] returned an IC50 of less than 1 nM.
